Source: US20030134832A1, “Novel tibolone formulations” (priority 2001, published 2003)

SMILES	pH of 1% w/v aqueous solution
O=C([O-])CC(O)(CC(=O)[O-])C(=O)[O-].[Na+].[Na+].[Na+] [Sodium Citrate, sodium citrate]	pH 8.75
O=C([O-])O.[Na+] [Sodium Bicarbonate, sodium bicarbonate]	pH 8.2
